Experimental data taken from US10213427B2 (Incyte Corporation, priority 2010, dated 2019).

Biological target: FGFR3 enzyme (Millipore) (Homo sapiens (Human), UniProt P22607)
Assay: FGFR3 Enzymatic Assay
Type: biochemical
Settings: FRET peptide phosphorylation, 140 μM ATP
Summary of the method: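 FGFR3 preincubated 5-10 min with serially diluted inhibitor in 50 mM HEPES pH 7.5, 10 mM MgCl2, 1 mM EGTA, 5 mM DTT, then reacted 1 h at 25 °C. Peptide phosphorylation detected by FRET; IC50 from variable-slope sigmoidal fit.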

FGFR3 enzyme (Millipore), sequence (P22607 23-806): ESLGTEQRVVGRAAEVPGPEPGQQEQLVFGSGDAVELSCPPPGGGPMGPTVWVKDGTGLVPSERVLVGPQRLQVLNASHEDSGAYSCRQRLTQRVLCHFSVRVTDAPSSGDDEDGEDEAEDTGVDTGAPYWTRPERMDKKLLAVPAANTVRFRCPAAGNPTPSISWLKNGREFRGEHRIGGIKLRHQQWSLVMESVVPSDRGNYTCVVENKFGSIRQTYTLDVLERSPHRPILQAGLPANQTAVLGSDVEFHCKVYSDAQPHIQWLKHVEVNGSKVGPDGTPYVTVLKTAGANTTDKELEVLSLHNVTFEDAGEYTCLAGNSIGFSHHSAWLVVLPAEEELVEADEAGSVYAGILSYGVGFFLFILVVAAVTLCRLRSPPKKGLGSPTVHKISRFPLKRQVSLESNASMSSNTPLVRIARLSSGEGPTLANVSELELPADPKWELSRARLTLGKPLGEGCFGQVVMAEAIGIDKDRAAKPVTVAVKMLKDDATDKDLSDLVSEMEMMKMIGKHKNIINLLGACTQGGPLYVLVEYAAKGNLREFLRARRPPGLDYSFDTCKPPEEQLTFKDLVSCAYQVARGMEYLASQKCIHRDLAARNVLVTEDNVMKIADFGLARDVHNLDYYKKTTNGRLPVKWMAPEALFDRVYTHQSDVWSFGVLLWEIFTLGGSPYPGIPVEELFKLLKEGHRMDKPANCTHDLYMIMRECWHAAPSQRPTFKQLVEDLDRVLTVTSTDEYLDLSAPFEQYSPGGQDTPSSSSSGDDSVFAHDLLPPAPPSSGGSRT

IC50: < 10 nM
SMILES: CC(C(=O)NCCN1CCOCC1)c1ccc(-c2cnn3c(-c4cccc(NC(=O)NCC(F)(F)F)c4)cnc3c2)cc1 (stereo not shown) [Example 107, N-(2-Morpholin-4-ylethyl)-2-(4-{3-[3-({[(2,2,2-trifluoroethyl)amino]carbonyl}amino)phenyl]imidazo[1,2-b]pyridazin-7-yl}phenyl)propanamide]
